Assay [1] can be described thus: A Cell Based Secondary Assay To Explore Cytotoxicity of Compounds that Sensitize Mycobacterium Tuberculosis to Beta-Lactam Antibiotics. It is filed as functional.
Assay [2] is described as follows: cytotoxicity in HPDE-C7 cells, cell-based, fluorescence, HTS (AID 430). It is filed as functional. The note with it: Homo sapiens.
A short description of assay [3]: cytotoxicity in KRAS-transformed pancreatic duct cells, primary screen, cell-based, fluorescence, HTS (AID 431).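 Also: cell line used: HPDE-C7K.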 The format is functional. Conditions: Homo sapiens.
Assay [4] concerns the target T1, Ubiquitin-conjugating enzyme E2 N (Homo sapiens, UniProt P61088).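 Also: Dose-response confirmation in a TR-FRET assay detecting UBC13-driven polyubiquitin chain formation, inhibition measured.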
T1 sequence (P61088 whole entry): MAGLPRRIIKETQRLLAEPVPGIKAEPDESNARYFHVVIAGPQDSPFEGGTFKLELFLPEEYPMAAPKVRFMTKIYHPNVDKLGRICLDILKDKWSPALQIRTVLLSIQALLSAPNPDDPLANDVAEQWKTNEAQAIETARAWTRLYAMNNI
It is filed as functional.

In assay [5] the target is T2, Hexokinase HKDC1 (Homo sapiens, UniProt Q2TB90).
T2 sequence (Q2TB90 whole entry): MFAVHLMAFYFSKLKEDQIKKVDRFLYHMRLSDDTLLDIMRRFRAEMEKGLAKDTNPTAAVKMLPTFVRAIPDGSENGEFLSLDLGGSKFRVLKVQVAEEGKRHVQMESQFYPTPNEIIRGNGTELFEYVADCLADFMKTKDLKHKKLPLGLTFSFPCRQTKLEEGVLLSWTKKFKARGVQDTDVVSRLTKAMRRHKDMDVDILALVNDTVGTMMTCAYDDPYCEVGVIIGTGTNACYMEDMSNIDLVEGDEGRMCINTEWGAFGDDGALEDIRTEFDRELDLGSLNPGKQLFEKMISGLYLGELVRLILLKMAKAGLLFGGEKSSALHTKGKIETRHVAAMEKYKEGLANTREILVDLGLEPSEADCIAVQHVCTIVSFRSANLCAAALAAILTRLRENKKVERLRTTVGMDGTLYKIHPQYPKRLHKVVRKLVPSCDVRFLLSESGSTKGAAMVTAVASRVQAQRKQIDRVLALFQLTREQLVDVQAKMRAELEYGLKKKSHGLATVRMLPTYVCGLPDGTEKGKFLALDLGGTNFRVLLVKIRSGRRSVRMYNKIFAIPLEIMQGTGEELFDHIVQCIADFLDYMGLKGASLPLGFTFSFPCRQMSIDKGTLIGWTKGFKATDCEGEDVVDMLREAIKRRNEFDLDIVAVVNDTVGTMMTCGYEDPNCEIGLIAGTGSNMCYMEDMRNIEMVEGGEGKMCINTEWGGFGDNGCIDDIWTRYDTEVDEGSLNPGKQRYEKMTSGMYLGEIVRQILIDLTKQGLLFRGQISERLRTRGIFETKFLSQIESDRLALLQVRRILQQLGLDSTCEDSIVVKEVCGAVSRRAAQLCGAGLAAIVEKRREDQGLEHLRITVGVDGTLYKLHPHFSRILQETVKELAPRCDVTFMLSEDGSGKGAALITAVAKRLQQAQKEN
The experiment in a line: HKDC1 hexokinase activators, dose response, biochemical, W721R variant (AID 504730). The format is functional.

For assay [6], the system named is Escherichia coli. The experiment in a line: microbe, parasite or virus in culture.
Assay [7] concerns the target T3, Short transient receptor potential channel 4 (Mus musculus, UniProt Q9QUQ5).
T3 sequence (Q9QUQ5 whole entry): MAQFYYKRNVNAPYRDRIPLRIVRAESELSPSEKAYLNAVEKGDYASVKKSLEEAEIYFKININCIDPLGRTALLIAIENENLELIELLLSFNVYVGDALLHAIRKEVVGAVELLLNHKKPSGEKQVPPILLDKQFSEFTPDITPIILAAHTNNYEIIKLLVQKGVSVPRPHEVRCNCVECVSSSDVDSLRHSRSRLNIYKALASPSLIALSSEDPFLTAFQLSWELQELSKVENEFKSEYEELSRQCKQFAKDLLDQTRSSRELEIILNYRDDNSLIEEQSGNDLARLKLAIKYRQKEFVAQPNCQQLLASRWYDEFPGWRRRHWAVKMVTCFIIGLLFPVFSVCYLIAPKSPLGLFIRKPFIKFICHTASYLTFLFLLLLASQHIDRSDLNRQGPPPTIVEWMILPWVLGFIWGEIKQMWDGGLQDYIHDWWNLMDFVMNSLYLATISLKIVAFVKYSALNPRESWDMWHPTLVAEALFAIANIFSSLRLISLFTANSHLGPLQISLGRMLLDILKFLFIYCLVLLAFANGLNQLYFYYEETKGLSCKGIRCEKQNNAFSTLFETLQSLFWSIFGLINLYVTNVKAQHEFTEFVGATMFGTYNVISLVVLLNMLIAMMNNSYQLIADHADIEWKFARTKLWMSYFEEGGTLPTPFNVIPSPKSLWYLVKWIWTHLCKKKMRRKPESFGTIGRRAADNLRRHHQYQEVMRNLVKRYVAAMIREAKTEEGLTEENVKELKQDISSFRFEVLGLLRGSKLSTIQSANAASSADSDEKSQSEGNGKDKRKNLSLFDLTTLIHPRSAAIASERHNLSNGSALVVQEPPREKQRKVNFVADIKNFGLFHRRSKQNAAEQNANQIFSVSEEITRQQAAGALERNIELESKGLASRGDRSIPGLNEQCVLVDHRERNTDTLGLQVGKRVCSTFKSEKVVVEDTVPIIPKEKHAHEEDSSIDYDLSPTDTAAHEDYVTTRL
The experiment in a line: mouse TRPC4 channel inhibitors, dose response, cell-based, HEK293 TRPC4/mu-opioid, Fluo-4 calcium (AID 434942).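 Also: potency of inhibitors blocking the TRPC4 calcium response.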 The format is functional.

Assay [8] has as its target T4, Corticotropin-releasing factor receptor 2/Corticotropin-releasing factor-binding protein (Homo sapiens, UniProt P24387+Q13324).
T4 sequence (Q13324 whole entry): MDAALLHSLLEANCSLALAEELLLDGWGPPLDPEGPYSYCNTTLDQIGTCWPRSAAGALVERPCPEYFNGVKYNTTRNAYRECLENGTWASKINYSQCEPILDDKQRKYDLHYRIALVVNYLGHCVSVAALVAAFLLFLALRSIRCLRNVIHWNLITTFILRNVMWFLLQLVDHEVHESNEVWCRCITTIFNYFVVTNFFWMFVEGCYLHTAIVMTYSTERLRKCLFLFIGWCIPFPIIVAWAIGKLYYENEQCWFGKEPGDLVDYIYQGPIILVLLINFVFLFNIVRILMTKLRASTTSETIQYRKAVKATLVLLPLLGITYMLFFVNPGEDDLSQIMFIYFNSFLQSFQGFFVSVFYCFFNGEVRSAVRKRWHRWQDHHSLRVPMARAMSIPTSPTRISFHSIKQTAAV
T4 sequence (P24387 whole entry): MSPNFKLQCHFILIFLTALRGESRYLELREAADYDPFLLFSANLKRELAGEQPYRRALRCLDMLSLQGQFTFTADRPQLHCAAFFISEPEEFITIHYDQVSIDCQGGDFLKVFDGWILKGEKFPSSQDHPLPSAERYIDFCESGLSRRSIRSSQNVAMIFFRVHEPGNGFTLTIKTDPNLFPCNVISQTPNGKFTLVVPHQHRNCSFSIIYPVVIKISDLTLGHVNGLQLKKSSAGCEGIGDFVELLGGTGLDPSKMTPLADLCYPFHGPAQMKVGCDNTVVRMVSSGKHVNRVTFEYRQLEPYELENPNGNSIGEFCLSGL
The experiment in a line: activators of CRF receptor 2 with binding protein – uHTS hits, confirmation (AID 602473). The format is functional. Conditions: read-out: EC50_Mean.

The target of assay [9] is X-box-binding protein 1 (Homo sapiens, UniProt P17861). The format is functional, Cricetulus griseus.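 Also: confirmatory dose-response counter-screen serving a CHOP assay.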
The nature of assay [10]: microbe, parasite or virus in culture. The note with it: Mycobacterium tuberculosis. It is filed as functional.
Assay [11] addresses Wee1-like protein kinase (Homo sapiens, UniProt P30291). The experiment in a line: G2/M cell cycle arrest in HeLa, late-stage follow-up, mechanism study for Wee1 degradation inhibitor project, FACS, panel member Wee1 Degradation (AID 2088).
Assay [12] addresses G2/mitotic-specific cyclin-B1 (Homo sapiens, UniProt P14635). The experiment in a line: G2/M cell cycle arrest in HeLa, late-stage follow-up, mechanism study for Wee1 degradation inhibitor project, FACS, panel member Cyclin B Degradation (AID 2088).
In assay [13] the target is SUMO E1/E2 (Homo sapiens, UniProt P63279+Q9UBE0+Q9UBT2). The experiment in a line: SAR analysis of SUMOylation using HTRF in an in-Vitro dose response assay. [Related pubchem assays (depositor defined):AID2006, AID2011, AID2018, AID2069, AID2658]. It is filed as functional.
Assay [14] deals with T5, Voltage-gated N-type calcium channel alpha-1B subunit/Amyloid beta A4 precursor protein-binding family A member 1 (Homo sapiens, UniProt Q00975+Q02410). The experiment in a line: disruptors of Mint-PDZ/N-type channel peptide interaction – biochemical, HTRF, set 2, SAR follow-up (AID 434980). It is filed as functional.
Assay [15] concerns the target T5, Voltage-gated N-type calcium channel alpha-1B subunit/Amyloid beta A4 precursor protein-binding family A member 1. The experiment in a line: disruptors of Mint-PDZ/N-type channel peptide interaction – biochemical, HTRF, SAR follow-up (AID 2489). The format is functional.
Assay [16] addresses DNA dC->dU-editing enzyme APOBEC-3A (Homo sapiens, UniProt P31941). The experiment in a line: APOBEC3A DNA deaminase inhibitors, dose response, biochemical (AID 504722). The format is functional.
Assay [17] addresses DNA dC->dU-editing enzyme APOBEC-3G (Homo sapiens, UniProt Q9HC16). The experiment in a line: Dose Response confirmation of small molecule APOBEC3G DNA Deaminase Inhibitors via a fluorescence-based single-stranded DNA deaminase assay. [Related pubchem assays (depositor defined):AID493012, AID493028]. The format is functional.

The values below come from ChEMBL document CHEMBL1201862, “PubChem BioAssay data set” (2004).

Each structure is given as a SMILES string. Calls of active or inactive are those of the source. Some results are limits rather than exact numbers.

X-box-binding protein 1, sequence (P17861 whole entry): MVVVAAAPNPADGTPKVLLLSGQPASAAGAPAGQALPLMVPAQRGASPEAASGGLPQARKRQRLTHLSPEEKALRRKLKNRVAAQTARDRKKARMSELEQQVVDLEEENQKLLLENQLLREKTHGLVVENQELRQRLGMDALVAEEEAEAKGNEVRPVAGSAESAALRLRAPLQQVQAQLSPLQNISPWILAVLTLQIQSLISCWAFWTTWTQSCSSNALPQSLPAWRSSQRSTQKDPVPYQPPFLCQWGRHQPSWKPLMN
T5 sequence (Q00975 whole entry): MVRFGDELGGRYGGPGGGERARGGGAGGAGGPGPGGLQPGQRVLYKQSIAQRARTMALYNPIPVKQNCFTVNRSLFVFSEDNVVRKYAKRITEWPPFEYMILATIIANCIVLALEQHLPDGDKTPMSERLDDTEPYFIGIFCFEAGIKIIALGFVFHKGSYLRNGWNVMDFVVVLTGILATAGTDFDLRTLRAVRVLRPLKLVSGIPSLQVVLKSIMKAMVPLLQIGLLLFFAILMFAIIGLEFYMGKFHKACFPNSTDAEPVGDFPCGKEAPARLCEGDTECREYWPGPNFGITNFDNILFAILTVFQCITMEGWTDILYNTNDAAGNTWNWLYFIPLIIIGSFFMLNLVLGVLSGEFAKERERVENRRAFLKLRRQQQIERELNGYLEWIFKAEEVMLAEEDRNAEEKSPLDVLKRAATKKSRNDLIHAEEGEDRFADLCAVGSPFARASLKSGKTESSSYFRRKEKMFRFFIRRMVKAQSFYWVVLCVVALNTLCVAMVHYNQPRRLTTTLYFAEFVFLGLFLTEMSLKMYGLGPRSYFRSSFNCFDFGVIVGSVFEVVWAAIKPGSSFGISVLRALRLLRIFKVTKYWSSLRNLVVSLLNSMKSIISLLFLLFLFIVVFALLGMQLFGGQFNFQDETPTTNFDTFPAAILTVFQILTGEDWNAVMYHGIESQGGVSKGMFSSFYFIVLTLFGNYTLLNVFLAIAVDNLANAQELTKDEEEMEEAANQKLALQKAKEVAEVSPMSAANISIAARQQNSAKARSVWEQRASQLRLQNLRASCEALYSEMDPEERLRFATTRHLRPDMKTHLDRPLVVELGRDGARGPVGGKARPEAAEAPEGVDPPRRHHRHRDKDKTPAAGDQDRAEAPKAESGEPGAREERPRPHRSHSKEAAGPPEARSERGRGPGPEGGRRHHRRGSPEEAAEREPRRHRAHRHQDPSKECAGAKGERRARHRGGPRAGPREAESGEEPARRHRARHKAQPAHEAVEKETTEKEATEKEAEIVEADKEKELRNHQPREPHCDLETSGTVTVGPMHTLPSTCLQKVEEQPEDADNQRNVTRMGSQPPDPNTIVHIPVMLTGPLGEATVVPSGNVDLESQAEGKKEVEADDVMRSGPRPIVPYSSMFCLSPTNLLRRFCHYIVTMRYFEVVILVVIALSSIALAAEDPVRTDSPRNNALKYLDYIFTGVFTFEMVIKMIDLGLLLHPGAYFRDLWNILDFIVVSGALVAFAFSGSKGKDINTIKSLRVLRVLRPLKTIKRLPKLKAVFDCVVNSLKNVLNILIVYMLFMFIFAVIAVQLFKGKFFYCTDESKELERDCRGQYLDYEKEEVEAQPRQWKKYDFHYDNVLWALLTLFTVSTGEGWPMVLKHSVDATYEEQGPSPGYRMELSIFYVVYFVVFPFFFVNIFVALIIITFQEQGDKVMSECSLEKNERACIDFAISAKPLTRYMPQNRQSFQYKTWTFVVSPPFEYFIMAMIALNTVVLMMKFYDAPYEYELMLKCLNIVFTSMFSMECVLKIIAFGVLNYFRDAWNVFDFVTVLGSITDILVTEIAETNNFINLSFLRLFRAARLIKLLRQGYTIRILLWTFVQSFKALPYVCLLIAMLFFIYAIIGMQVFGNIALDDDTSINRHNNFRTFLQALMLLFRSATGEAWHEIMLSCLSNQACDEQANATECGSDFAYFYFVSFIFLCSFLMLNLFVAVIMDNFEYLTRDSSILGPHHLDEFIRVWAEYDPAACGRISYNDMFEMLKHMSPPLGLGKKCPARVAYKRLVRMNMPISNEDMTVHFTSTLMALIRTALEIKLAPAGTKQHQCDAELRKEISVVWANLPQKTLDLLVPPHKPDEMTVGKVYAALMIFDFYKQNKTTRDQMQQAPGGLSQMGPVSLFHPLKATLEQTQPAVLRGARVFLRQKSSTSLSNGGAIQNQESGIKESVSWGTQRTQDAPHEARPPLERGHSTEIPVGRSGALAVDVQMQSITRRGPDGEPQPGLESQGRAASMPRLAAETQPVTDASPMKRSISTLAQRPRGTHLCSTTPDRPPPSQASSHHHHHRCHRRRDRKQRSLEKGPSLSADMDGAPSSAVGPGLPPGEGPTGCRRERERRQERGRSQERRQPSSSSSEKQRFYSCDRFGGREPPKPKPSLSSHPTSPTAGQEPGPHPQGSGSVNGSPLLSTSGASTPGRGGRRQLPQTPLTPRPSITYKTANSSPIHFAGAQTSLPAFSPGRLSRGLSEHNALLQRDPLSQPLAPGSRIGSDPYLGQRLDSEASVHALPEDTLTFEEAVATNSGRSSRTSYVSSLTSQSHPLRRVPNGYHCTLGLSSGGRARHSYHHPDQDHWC
T5 sequence (Q02410 whole entry): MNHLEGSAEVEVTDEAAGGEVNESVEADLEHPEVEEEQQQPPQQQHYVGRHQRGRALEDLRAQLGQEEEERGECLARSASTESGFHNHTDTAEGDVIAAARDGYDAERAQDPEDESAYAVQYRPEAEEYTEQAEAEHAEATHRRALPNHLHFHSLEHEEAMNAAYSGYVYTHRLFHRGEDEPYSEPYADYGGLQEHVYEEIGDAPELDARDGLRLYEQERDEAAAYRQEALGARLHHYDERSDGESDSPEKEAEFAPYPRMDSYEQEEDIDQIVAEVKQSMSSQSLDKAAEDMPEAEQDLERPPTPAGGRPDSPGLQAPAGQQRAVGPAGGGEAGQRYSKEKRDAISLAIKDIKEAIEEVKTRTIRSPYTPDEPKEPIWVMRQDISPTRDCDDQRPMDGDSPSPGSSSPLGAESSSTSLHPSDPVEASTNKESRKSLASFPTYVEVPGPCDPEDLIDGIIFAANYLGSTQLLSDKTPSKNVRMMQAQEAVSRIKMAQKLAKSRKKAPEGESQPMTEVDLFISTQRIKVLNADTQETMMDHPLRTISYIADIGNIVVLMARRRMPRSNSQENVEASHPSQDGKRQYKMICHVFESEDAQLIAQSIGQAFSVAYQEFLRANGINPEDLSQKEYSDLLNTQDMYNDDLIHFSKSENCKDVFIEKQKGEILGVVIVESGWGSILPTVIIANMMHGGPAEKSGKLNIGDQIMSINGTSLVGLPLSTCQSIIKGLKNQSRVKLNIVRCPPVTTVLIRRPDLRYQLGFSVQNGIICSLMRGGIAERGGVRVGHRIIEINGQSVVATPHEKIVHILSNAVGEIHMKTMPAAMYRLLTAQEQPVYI
SUMO E1/E2, sequence (Q9UBE0 whole entry): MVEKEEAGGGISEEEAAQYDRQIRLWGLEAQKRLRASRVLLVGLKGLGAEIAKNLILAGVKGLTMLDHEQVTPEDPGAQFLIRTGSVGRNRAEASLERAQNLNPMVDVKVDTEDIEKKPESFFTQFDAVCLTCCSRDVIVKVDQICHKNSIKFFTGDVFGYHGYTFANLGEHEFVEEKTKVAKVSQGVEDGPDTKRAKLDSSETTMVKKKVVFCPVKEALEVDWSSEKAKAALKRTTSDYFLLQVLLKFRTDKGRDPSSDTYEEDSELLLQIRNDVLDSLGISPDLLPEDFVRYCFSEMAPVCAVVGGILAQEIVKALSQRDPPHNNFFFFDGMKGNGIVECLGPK
SUMO E1/E2, sequence (Q9UBT2 whole entry): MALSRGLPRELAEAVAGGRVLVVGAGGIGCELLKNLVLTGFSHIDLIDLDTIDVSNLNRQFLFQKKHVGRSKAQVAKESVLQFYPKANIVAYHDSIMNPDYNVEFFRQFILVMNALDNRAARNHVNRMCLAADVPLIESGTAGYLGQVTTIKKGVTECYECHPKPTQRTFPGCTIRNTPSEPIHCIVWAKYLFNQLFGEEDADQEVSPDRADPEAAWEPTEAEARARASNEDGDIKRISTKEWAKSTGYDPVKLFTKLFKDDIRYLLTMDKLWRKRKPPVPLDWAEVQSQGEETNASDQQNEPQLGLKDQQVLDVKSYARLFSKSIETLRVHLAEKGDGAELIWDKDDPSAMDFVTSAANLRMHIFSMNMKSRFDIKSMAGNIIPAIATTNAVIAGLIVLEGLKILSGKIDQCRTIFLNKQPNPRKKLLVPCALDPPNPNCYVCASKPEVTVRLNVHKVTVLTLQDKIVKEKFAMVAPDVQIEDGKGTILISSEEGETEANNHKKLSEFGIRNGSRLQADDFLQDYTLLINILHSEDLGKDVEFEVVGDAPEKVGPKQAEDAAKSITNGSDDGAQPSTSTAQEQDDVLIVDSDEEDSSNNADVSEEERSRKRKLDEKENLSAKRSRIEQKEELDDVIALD
SUMO E1/E2, sequence (P63279 whole entry): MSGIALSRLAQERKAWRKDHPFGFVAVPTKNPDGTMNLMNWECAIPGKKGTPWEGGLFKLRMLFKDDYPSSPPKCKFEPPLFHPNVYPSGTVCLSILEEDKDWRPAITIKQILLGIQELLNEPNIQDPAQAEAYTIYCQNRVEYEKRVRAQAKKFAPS
G2/mitotic-specific cyclin-B1, sequence (P14635 whole entry): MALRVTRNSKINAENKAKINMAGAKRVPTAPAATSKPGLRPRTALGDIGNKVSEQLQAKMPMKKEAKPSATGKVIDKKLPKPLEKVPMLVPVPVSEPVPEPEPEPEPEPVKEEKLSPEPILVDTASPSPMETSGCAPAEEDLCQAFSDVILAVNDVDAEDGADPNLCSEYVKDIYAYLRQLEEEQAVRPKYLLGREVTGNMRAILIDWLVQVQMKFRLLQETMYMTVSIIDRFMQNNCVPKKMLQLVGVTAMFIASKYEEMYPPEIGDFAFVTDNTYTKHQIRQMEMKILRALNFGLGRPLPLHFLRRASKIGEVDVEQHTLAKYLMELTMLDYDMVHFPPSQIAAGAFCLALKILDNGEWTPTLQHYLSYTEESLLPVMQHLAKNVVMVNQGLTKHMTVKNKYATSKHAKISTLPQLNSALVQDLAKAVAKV

`CCN(CC)CCCNC(=O)c1c(O)c2ccccc2n(Cc2ccccc2)c1=O`: in [1], the CC50 is 32 µM (active). The results for the EC50 in assay [2], in [3] and in assay [5] were > 20 µM (not active), > 20 µM (not active) and > 80 µM (inactive), respectively. Also, the IC50 in assay [4] was > 20 µM (inactive). In addition, the AC50 in [6] was 23.5 µM (active).

For `O=C(c1ccc2c(c1)OCO2)C1CCCN(Cc2cc(F)ccc2-n2cccn2)C1` (centres undefined), the EC50 in assay [7] was 5.96 µM (active); in [8], > 53 µM (inactive).

Take `COc1cc(-c2nc3c(c(C)nn3-c3ccccc3)c3cc(OC)c(OC)cc23)ccc1O`: in assay [9], the “Absolute IC50 (XBP1)” value amounted to 10 µM.

As to `Cc1ccc(-c2[nH]c3ccccc3c2SCCN)cc1`, in assay [7], the EC50 was 4.73 µM (active).

Consider `Cc1ccc(C2CN(C)C3(C(=O)Nc4ccccc43)C23COc2ccccc2C3=O)cc1` (centres undefined), for which the CC50 in [10] is > 40 µM (active). Moreover, the “Absolute IC50 (XBP1)” value in assay [9] was determined as 10 µM.

Turning to `CCc1ccccc1NC(=O)CCCOc1cc(=O)n(C)c2ccccc12`, the EC50 in assay [11] and in assay [12] was > 49.7 µM (inactive) throughout.

As for `COc1ccc(CNC(=O)CCOC(=O)c2cc(-c3ccco3)nc3ccccc23)cc1`, the IC50 in assay [13] is 29.6 µM (active); in [14] it was 14.4 µM (active); in assay [15] it was 20.8 µM (active).

Consider `Sc1nnc(-c2ccccn2)n1/N=C/c1ccc(Cl)cc1`, for which the values for the IC50 in [16] and in assay [17] were > 100 µM (inactive) and 3.33 µM (active), respectively.
